According to patent publication US9738634B2, “Heterocyclic amide compound and herbicide” (SYNGENTA PARTICIPATIONS AG, priority 2013, dated 2017):

Legend:
Format in all cases: in vivo
Conditions in all cases: treatment dosage 320 g/ha
[1] = system: Italian ryegrass; assay: Test Example 3: weedkilling efficacy through soil treatment; I: Italian ryegrass
Summary of the method: (§1)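 Crop and weed responses were judged three weeks after a uniform surface spray of the water-diluted emulsion at the given g/ha rate. Seeds sat beneath about 1.5 cm of sterilized diluvial soil, and boxes stood in a greenhouse at 25 to 30° C.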

[2] = system: green foxtail; assay: Test Example 4: weedkilling efficacy by foliar treatment; E: green foxtail
Summary of the method: (§2)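 Seeds are spot-sown into sterilized diluvial soil and covered with about 1.5 cm of soil. After 14 days' greenhouse growth at 25 to 30° C, plants are sprayed on stems and leaves with diluted emulsion at the stated g/ha rate, then scored at 3 weeks.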

[3] = system: oval-leafed pondweed; assay: Test Example 2: weedkilling efficacy, growth period weed treatment in the submerged state; C: oval-leafed pondweed
Summary of the method: (§3)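 Barnyard grass, bulrush and oval-leafed pondweed sown in alluvial soil under 4 cm flooding, greenhouse 25 to 30° C. At 1-2 leaf stage, water-diluted emulsion applied to the water surface at stated g/ha dosages; effects scored 3 weeks later.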

[4] = system: rapeseed; assay: Test Example 4: foliar treatment, effect on crop; g: rapeseed
Summary of the method: as §2

[5] = system: rapeseed; assay: Test Example 3: soil treatment, effect on crop; g: rapeseed
Summary of the method: as §1

[6] = system: Indian mallow; assay: Test Example 4: weedkilling efficacy by foliar treatment; K: Indian mallow
Summary of the method: as §2

[7] = system: chickweed; assay: Test Example 4: weedkilling efficacy by foliar treatment; N: chickweed
Summary of the method: as §2

[8] = system: wild oat; assay: Test Example 4: weedkilling efficacy by foliar treatment; G: wild oat
Summary of the method: as §2

[9] = system: barnyard grass; assay: Test Example 2: weedkilling efficacy, growth period weed treatment in the submerged state; A: barnyard grass
Summary of the method: as §3

[10] = system: wheat; assay: Test Example 4: foliar treatment, effect on crop; e: wheat
Summary of the method: as §2

[11] = system: redroot pigweed; assay: Test Example 4: weedkilling efficacy by foliar treatment; L: redroot pigweed
Summary of the method: as §2

[12] = system: bulrush; assay: Test Example 2: weedkilling efficacy, growth period weed treatment in the submerged state; B: bulrush
Summary of the method: as §3

[13] = system: birds-eye speedwell; assay: Test Example 3: weedkilling efficacy through soil treatment; p: birds-eye speedwell
Summary of the method: as §1

[14] = system: corn; assay: Test Example 3: soil treatment, effect on crop; c: corn
Summary of the method: as §1

[15] = system: catchweed; assay: Test Example 4: weedkilling efficacy by foliar treatment; O: catchweed
Summary of the method: as §2

[16] = system: fig-leafed goosefoot; assay: Test Example 3: weedkilling efficacy through soil treatment; M: fig-leafed goosefoot
Summary of the method: as §1

[17] = system: soybean; assay: Test Example 3: soil treatment, effect on crop; d: soybean
Summary of the method: as §1

[18] = system: bulrush; assay: Test Example 1: weedkilling efficacy, preemergent weed treatment in the submerged state; B: bulrush
Summary of the method: (§4)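 Visual scores against set criteria were taken 3 weeks after treatment. Compounds, as diluted emulsions at specified g/ha, went onto the water surface of 4 cm-flooded alluvial soil pots on the day weeds were sown and 2.5-leaf rice was transplanted; greenhouse held 25–30 °C.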

[19] = system: beet; assay: Test Example 4: foliar treatment, effect on crop; f: beet
Summary of the method: as §2

[20] = system: black-grass; assay: Test Example 4: weedkilling efficacy by foliar treatment; H: black-grass
Summary of the method: as §2

[21] = system: redroot pigweed; assay: Test Example 3: weedkilling efficacy through soil treatment; L: redroot pigweed
Summary of the method: as §1

[22] = system: black-grass; assay: Test Example 3: weedkilling efficacy through soil treatment; H: black-grass
Summary of the method: as §1

[23] = system: chickweed; assay: Test Example 3: weedkilling efficacy through soil treatment; N: chickweed
Summary of the method: as §1

[24] = system: wheat; assay: Test Example 3: soil treatment, effect on crop; e: wheat
Summary of the method: as §1

[25] = system: beet; assay: Test Example 3: soil treatment, effect on crop; f: beet
Summary of the method: as §1

[26] = system: wild oat; assay: Test Example 3: weedkilling efficacy through soil treatment; G: wild oat
Summary of the method: as §1

[27] = system: transplanted rice; assay: Test Example 1: preemergent weed treatment in the submerged state, effect on crop; a: transplanted rice
Summary of the method: as §4

[28] = system: green foxtail; assay: Test Example 3: weedkilling efficacy through soil treatment; E: green foxtail
Summary of the method: as §1

[29] = system: birds-eye speedwell; assay: Test Example 4: weedkilling efficacy by foliar treatment; p: birds-eye speedwell
Summary of the method: as §2

[30] = system: soybean; assay: Test Example 4: foliar treatment, effect on crop; d: soybean
Summary of the method: as §2

[31] = system: crabgrass; assay: Test Example 3: weedkilling efficacy through soil treatment; D: crabgrass
Summary of the method: as §1

[32] = system: corn; assay: Test Example 4: foliar treatment, effect on crop; c: corn
Summary of the method: as §2

[33] = system: common wind-grass; assay: Test Example 4: weedkilling efficacy by foliar treatment; J: common wind-grass
Summary of the method: as §2

[34] = system: barnyard grass; assay: Test Example 3: weedkilling efficacy through soil treatment; F: barnyard grass
Summary of the method: as §1

[35] = system: common wind-grass; assay: Test Example 3: weedkilling efficacy through soil treatment; J: common wind-grass
Summary of the method: as §1

[36] = system: crabgrass; assay: Test Example 4: weedkilling efficacy by foliar treatment; D: crabgrass
Summary of the method: as §2

[37] = system: Indian mallow; assay: Test Example 3: weedkilling efficacy through soil treatment; K: Indian mallow
Summary of the method: as §1

[38] = system: directly sown rice; assay: Test Example 4: foliar treatment, effect on crop; b: directly sown rice
Summary of the method: as §2

[39] = system: directly sown rice; assay: Test Example 3: soil treatment, effect on crop; b: directly sown rice
Summary of the method: as §1

[40] = system: Italian ryegrass; assay: Test Example 4: weedkilling efficacy by foliar treatment; I: Italian ryegrass
Summary of the method: as §2

[41] = system: barnyard grass; assay: Test Example 1: weedkilling efficacy, preemergent weed treatment in the submerged state; A: barnyard grass
Summary of the method: as §4

[42] = system: oval-leafed pondweed; assay: Test Example 1: weedkilling efficacy, preemergent weed treatment in the submerged state; C: oval-leafed pondweed
Summary of the method: as §4

[43] = system: barnyard grass; assay: Test Example 4: weedkilling efficacy by foliar treatment; F: barnyard grass
Summary of the method: as §2

[44] = system: catchweed; assay: Test Example 3: weedkilling efficacy through soil treatment; O: catchweed
Summary of the method: as §1

SMILES: COc1cc(Cl)nc(NC(=O)C(C)(C)N2COC(C)=C(c3ccccc3)C2=O)c1 [B-2-47]
- I (Italian ryegrass) weedkilling efficacy grade [1]: 5 (weed kill ratio 90% or more, (practically complete withering))
- E (green foxtail) weedkilling efficacy grade [2]: 4 (weed kill ratio 70% or more, less than 90%)
- C (oval-leafed pondweed) weedkilling efficacy grade [3]: 5 (weed kill ratio 90% or more, (practically complete withering))
- g (rapeseed) effect on crop grade [4]: 3 (weed kill ratio 40% or more, less than 70%)
- g (rapeseed) effect on crop grade [5]: 3 (weed kill ratio 40% or more, less than 70%)
- K (Indian mallow) weedkilling efficacy grade [6]: 0 (weed kill ratio 5% or less (practically no effect))
- N (chickweed) weedkilling efficacy grade [7]: 2 (weed kill ratio 20% or more, less than 40%)
- G (wild oat) weedkilling efficacy grade [8]: 2 (weed kill ratio 20% or more, less than 40%)
- A (barnyard grass) weedkilling efficacy grade [9]: 5 (weed kill ratio 90% or more, (practically complete withering))
- e (wheat) effect on crop grade [10]: 0 (weed kill ratio 5% or less (practically no effect))
- L (redroot pigweed) weedkilling efficacy grade [11]: 0 (weed kill ratio 5% or less (practically no effect))
- B (bulrush) weedkilling efficacy grade [12]: 5 (weed kill ratio 90% or more, (practically complete withering))
- P (birds-eye speedwell) weedkilling efficacy grade [13]: 5 (weed kill ratio 90% or more, (practically complete withering))
- c (corn) effect on crop grade [14]: 0 (weed kill ratio 5% or less (practically no effect))
- O (catchweed) weedkilling efficacy grade [15]: 3 (weed kill ratio 40% or more, less than 70%)
- M (fig-leafed goosefoot) weedkilling efficacy grade [16]: 2 (weed kill ratio 20% or more, less than 40%)
- d (soybean) effect on crop grade [17]: 0 (weed kill ratio 5% or less (practically no effect))
- B (bulrush) weedkilling efficacy grade [18]: 5 (weed kill ratio 90% or more, (practically complete withering))
- f (beet) effect on crop grade [19]: 3 (weed kill ratio 40% or more, less than 70%)
- H (black-grass) weedkilling efficacy grade [20]: 2 (weed kill ratio 20% or more, less than 40%)
- L (redroot pigweed) weedkilling efficacy grade [21]: 0 (weed kill ratio 5% or less (practically no effect))
- H (black-grass) weedkilling efficacy grade [22]: 5 (weed kill ratio 90% or more, (practically complete withering))
- N (chickweed) weedkilling efficacy grade [23]: 3 (weed kill ratio 40% or more, less than 70%)
- e (wheat) effect on crop grade [24]: 0 (weed kill ratio 5% or less (practically no effect))
- f (beet) effect on crop grade [25]: 2 (weed kill ratio 20% or more, less than 40%)
- G (wild oat) weedkilling efficacy grade [26]: 2 (weed kill ratio 20% or more, less than 40%)
- a (transplanted rice) effect on crop grade [27]: 1 (weed kill ratio 5% or more, less than 20%)
- E (green foxtail) weedkilling efficacy grade [28]: 5 (weed kill ratio 90% or more, (practically complete withering))
- P (birds-eye speedwell) weedkilling efficacy grade [29]: 4 (weed kill ratio 70% or more, less than 90%)
- d (soybean) effect on crop grade [30]: 0 (weed kill ratio 5% or less (practically no effect))
- D (crabgrass) weedkilling efficacy grade [31]: 4 (weed kill ratio 70% or more, less than 90%)
- c (corn) effect on crop grade [32]: 0 (weed kill ratio 5% or less (practically no effect))
- J (common wind-grass) weedkilling efficacy grade [33]: 4 (weed kill ratio 70% or more, less than 90%)
- F (barnyard grass) weedkilling efficacy grade [34]: 4 (weed kill ratio 70% or more, less than 90%)
- J (common wind-grass) weedkilling efficacy grade [35]: 5 (weed kill ratio 90% or more, (practically complete withering))
- D (crabgrass) weedkilling efficacy grade [36]: 3 (weed kill ratio 40% or more, less than 70%)
- K (Indian mallow) weedkilling efficacy grade [37]: 0 (weed kill ratio 5% or less (practically no effect))
- b (directly sown rice) effect on crop grade [38]: 0 (weed kill ratio 5% or less (practically no effect))
- b (directly sown rice) effect on crop grade [39]: 3 (weed kill ratio 40% or more, less than 70%)
- I (Italian ryegrass) weedkilling efficacy grade [40]: 2 (weed kill ratio 20% or more, less than 40%)
- A (barnyard grass) weedkilling efficacy grade [41]: 5 (weed kill ratio 90% or more, (practically complete withering))
- C (oval-leafed pondweed) weedkilling efficacy grade [42]: 5 (weed kill ratio 90% or more, (practically complete withering))
- F (barnyard grass) weedkilling efficacy grade [43]: 1 (weed kill ratio 5% or more, less than 20%)
- O (catchweed) weedkilling efficacy grade [44]: 4 (weed kill ratio 70% or more, less than 90%)
